Assay results as given in the supplement of paper PMC10307832.

Tests used:
Assay in all cases: relative viability (nuclei count vs DMSO), 5 days (fraction); higher = more cells survive
CUDC-101 + OSI-027 = compound: C#Cc1cccc(Nc2ncnc3cc(OC)c(OCCCCCCC(=O)NO)cc23)c1 [CUDC-101] + COc1cccc2cc(-c3nc([C@H]4CC[C@H](C(=O)O)CC4)n4ncnc(N)c34)[nH]c12 [OSI-027] (partner 0.5 µM)
Method in brief: (§1)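 For relative viability, nuclei counts in treated wells were divided by those in vehicle wells. Lung cancer cell lines had been pin-tool dosed in 1536-well plates the day after seeding and cultured for 5 days, then fixed and stained in one step (final 0.05% Triton X-100, 1% formaldehyde, 1 ug/ml Hoechst) and imaged at 4×. Doses were one drug alone or a fixed anchor-drug dose plus five library-drug doses (not always all listed) in √10 steps, and values are duplicate-plate medians.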

CUDC-101 + Phenformin = compound: C#Cc1cccc(Nc2ncnc3cc(OC)c(OCCCCCCC(=O)NO)cc23)c1 [CUDC-101] + N=C(N)NC(=N)NCCc1ccccc1 [Phenformin] (partner 250 µM)
Method in brief: as §1

CUDC-101 + Vorinostat = compound: C#Cc1cccc(Nc2ncnc3cc(OC)c(OCCCCCCC(=O)NO)cc23)c1 [CUDC-101] + O=C(CCCCCCC(=O)Nc1ccccc1)NO [Vorinostat] (partner 1 µM)
Method in brief: as §1

[1] = compound: C1=CC=C2C(=C1)N=C(S2)C(C#N)C3=NC(=NC=C3)NCCC4=CN=CC=C4 + CC1(C)CCC(c2ccc(Cl)cc2)=C(CN2CCN(c3ccc(C(=O)NS(=O)(=O)c4ccc(N[C@H](CCN5CCOCC5)CSc5ccccc5)c(S(=O)(=O)C(F)(F)F)c4)cc3)CC2)C1 [Navitoclax] (partner 0.5 µM)
Method in brief: as §1

Cell Line | relative viability (CUDC-101 + OSI-027; first compound 0.01 µM) | relative viability (CUDC-101 + OSI-027; first compound 0.03162 µM) | relative viability (CUDC-101 + OSI-027; first compound 0.1 µM) | relative viability (CUDC-101 + OSI-027; first compound 0.3162 µM) | relative viability (CUDC-101 + OSI-027; first compound 1 µM) | relative viability (CUDC-101 + Phenformin; first compound 0.01 µM) | relative viability (CUDC-101 + Phenformin; first compound 0.03162 µM) | relative viability (CUDC-101 + Phenformin; first compound 0.1 µM) | relative viability (CUDC-101 + Phenformin; first compound 0.3162 µM) | relative viability (CUDC-101 + Phenformin; first compound 1 µM) | relative viability (CUDC-101 + Vorinostat; first compound 0.01 µM) | relative viability (CUDC-101 + Vorinostat; first compound 0.03162 µM) | relative viability (CUDC-101 + Vorinostat; first compound 0.1 µM) | relative viability (CUDC-101 + Vorinostat; first compound 0.3162 µM) | relative viability (CUDC-101 + Vorinostat; first compound 1 µM) | relative viability ([1]; first compound 0.005 µM) | relative viability ([1]; first compound 0.01581 µM) | relative viability ([1]; first compound 0.05 µM) | relative viability ([1]; first compound 0.1581 µM) | relative viability ([1]; first compound 0.5 µM)
LU99A | 0.297 | 0.305 | 0.302 | 0.289 | 0.239 | 0.825 | 0.682 | 0.676 | 0.947 | 0.572 | 0.529 | 0.477 | 0.452 | 0.389 | 0.219 | 0.691 | 0.968 | 0.777 | 0.948 | 0.866
LXF-289 | 0.751 | 0.885 | 0.766 | 0.918 | 0.57 | 0.536 | 0.523 | 0.55 | 0.493 | 0.408 | 0.755 | 0.757 | 0.71 | 0.594 | 0.447 | 0.857 | 0.972 | 0.95 | 1 | 0.892
NCI-H23 | 0.71 | 0.647 | 0.631 | 0.607 | 0.509 | 0.793 | 0.743 | 0.81 | 0.851 | 0.789 | 0.71 | 0.731 | 0.683 | 0.661 | 0.335 |  | 0.958 | 0.728 | 0.959 | 0.958
NCI-H322M | 0.679 | 0.555 | 0.518 | 0.417 | 0.308 | 0.786 | 0.69 | 0.64 | 0.586 | 0.438 | 0.858 | 0.81 | 0.799 | 0.596 | 0.494 | 1.24 | 1.24 | 1.23 | 1.49 | 1.18
NCI-H441 | 0.622 | 0.625 | 0.621 | 0.803 | 0.399 | 0.88 | 0.486 | 0.764 | 0.917 | 0.776 | 0.968 | 0.915 | 0.784 | 0.937 | 0.618 |  | 0.625 | 0.513 | 0.575 | 0.48
NCI-H460 | 0.701 | 0.62 | 0.734 | 0.762 | 0.555 | 0.528 | 0.501 | 0.554 | 0.526 | 0.486 | 0.679 | 0.73 | 0.695 | 0.597 | 0.409 |  | 1.38 | 1.13 | 1.23 | 0.656
NCI-H520 | 0.218 | 0.281 | 0.327 | 0.256 | 0.191 | 0.55 | 0.494 | 0.576 | 0.581 | 0.247 | 0.769 | 0.686 | 0.488 | 0.397 | 0.32 | 0.929 | 1.25 | 1.03 | 1.26 | 1.19
NCI-H596 | 0.655 | 0.715 | 0.783 | 0.805 | 0.751 | 0.886 | 0.729 | 0.751 | 0.772 | 0.698 | 0.569 | 0.605 | 0.501 | 0.735 | 0.501 | 0.913 | 1.08 | 0.893 | 1.18 | 0.953
NCI-H647 | 0.68 | 0.668 | 0.783 | 0.596 | 0.383 | 0.564 | 0.483 | 0.574 | 0.418 | 0.21 | 0.479 | 0.465 | 0.664 | 0.427 | 0.262 |  | 1.22 | 0.955 | 1.34 | 0.979
NCI-H727 | 0.633 | 0.601 | 0.7 | 0.578 | 0.369 | 0.591 | 0.476 | 0.297 | 0.604 | 0.362 | 1.28 | 1.15 | 0.958 | 1.04 | 0.642 | 0.465 | 0.334 | 0.347 | 0.414 | 0.397
NCI-H838 | 0.411 | 0.354 | 0.431 | 0.523 | 0.391 | 0.64 | 0.564 | 0.696 | 0.712 | 0.404 | 0.719 | 0.741 | 0.708 | 0.555 | 0.372 | 1.02 | 1.22 | 1.16 | 1.1 | 1.22
NCI-H1355 | 0.393 | 0.385 | 0.411 | 0.416 | 0.309 | 0.453 | 0.431 | 0.453 | 0.47 | 0.387 | 0.693 | 0.663 | 0.636 | 0.62 | 0.497 | 0.975 | 0.959 | 0.906 | 1.03 | 0.975
NCI-H1395 | 0.746 | 0.629 | 0.628 | 0.727 | 0.508 | 0.495 | 0.435 | 0.462 | 0.466 | 0.456 | 0.81 | 0.753 | 0.797 | 0.661 | 0.489 | 1.23 |  | 1.03 | 1.08 | 1.22
NCI-H1437 | 0.857 | 0.876 | 0.886 | 0.952 | 0.662 | 0.313 | 0.341 | 0.275 | 0.275 | 0.392 | 0.864 | 0.857 | 0.814 | 0.808 | 0.495 | 1.02 | 1.15 | 1.14 | 1.17 | 1.08
NCI-H1650 | 0.661 | 0.531 | 0.517 | 0.577 | 0.231 | 0.405 | 0.313 | 0.36 | 0.452 | 0.188 | 0.532 | 0.352 | 0.517 | 0.615 | 0.41 | 0.964 | 1.17 | 1.22 | 1.31 | 1.07
NCI-H1651 | 0.707 | 0.67 | 0.746 | 0.912 | 0.679 | 0.34 | 0.352 | 0.371 | 0.415 | 0.432 | 0.539 | 0.545 | 0.578 | 0.51 | 0.497 | 0.9 | 1.08 | 0.95 | 1.11 | 1.17
NCI-H1666 | 0.85 | 0.867 | 0.837 | 0.857 | 0.739 | 0.601 | 0.535 | 0.574 | 0.575 | 0.552 | 1.1 | 1.01 | 0.951 | 1.06 | 1.06 | 0.841 | 0.937 | 0.965 | 1.05 | 0.797
NCI-H1734 | 0.641 | 0.577 | 0.638 | 0.608 | 0.38 | 0.362 | 0.419 | 0.425 | 0.448 | 0.29 | 0.882 | 0.76 | 0.832 | 0.595 | 0.369 | 0.58 | 1.05 | 0.886 | 0.932 | 0.664
NCI-H1755 | 0.624 | 0.729 | 0.794 | 0.781 | 0.571 | 0.587 | 0.629 | 0.319 | 0.645 | 0.534 | 0.759 | 0.741 | 0.73 | 0.67 | 0.637 | 0.968 | 1.1 | 1 | 1.15 | 0.948
NCI-H1793 | 0.291 | 0.255 | 0.255 | 0.25 | 0.218 | 0.372 | 0.239 | 0.34 | 0.442 | 0.291 | 0.858 | 0.774 | 0.558 | 0.675 | 0.331 | 0.31 | 0.398 | 0.519 | 0.456 | 0.509
NCI-H1915 | 0.627 | 0.597 | 0.591 | 0.551 | 0.404 | 0.395 | 0.361 | 0.364 | 0.349 | 0.269 | 0.527 | 0.511 | 0.481 | 0.358 | 0.374 | 0.802 | 0.805 | 0.762 | 0.77 | 0.775
NCI-H1944 | 0.436 | 0.388 | 0.357 | 0.36 | 0.253 | 0.218 | 0.192 | 0.181 | 0.193 | 0.151 | 0.522 | 0.58 | 0.529 | 0.533 | 0.369 | 1.05 | 1.06 | 0.983 | 1.06 | 1.04
NCI-H1975 | 0.658 | 0.75 | 0.728 | 0.813 | 0.698 | 0.415 | 0.401 | 0.416 | 0.425 | 0.378 | 0.687 | 0.712 | 0.781 | 0.75 | 0.642 | 0.852 | 1.15 | 1.03 | 1.18 | 0.695
NCI-H1993 | 0.61 | 0.552 | 0.625 | 0.626 | 0.657 | 0.491 | 0.523 | 0.569 | 0.535 | 0.603 | 0.748 | 1.01 | 0.688 | 0.666 | 0.426 | 0.911 | 0.802 | 0.896 | 0.929 | 0.81
NCI-H2009 | 0.672 | 0.737 | 0.739 | 0.8 | 0.494 | 0.511 | 0.496 | 0.534 | 0.499 | 0.404 | 0.766 | 0.639 | 0.764 | 0.705 | 0.506 | 1.13 | 1.17 | 1.14 | 1.22 | 1.21
NCI-H2023 | 0.433 | 0.461 | 0.432 | 0.488 | 0.325 | 0.406 | 0.379 | 0.438 | 0.481 | 0.341 | 0.781 | 0.654 | 0.716 | 0.703 | 0.435 | 0.971 | 0.979 | 0.948 | 1.13 | 0.707
NCI-H2085 | 0.577 | 0.646 | 0.728 | 0.835 | 0.535 | 0.654 | 0.679 | 0.763 | 0.724 | 0.593 | 0.772 | 0.771 | 0.814 | 0.801 | 0.628 | 0.946 | 1.09 | 1.09 | 1.15 | 0.981
